Results reported in paper PMC11864979, “First-in-class ultralong-target-residence-time p38α inhibitors as a mitosis-targeted therapy for colorectal cancer” (Nature Cancer, 2025).
Like-named read-outs stand apart in the source and are kept apart here.

What was measured:
Assay in all cases: selectivity profiling in a panel of 340 wild-type kinases (Reaction Biology Europe)
Format in all cases: binding
340 wild-type kinases [1] = biological target: T1, 340 wild-type kinases (Homo sapiens, UniProt P43405)
T1 construct: purchased Reaction Biology Europe

340 wild-type kinases [2] = biological target: T2, 340 wild-type kinases (Homo sapiens, UniProt P57078)
T2 construct: purchased Reaction Biology Europe
T2 sequence (P57078 1-832): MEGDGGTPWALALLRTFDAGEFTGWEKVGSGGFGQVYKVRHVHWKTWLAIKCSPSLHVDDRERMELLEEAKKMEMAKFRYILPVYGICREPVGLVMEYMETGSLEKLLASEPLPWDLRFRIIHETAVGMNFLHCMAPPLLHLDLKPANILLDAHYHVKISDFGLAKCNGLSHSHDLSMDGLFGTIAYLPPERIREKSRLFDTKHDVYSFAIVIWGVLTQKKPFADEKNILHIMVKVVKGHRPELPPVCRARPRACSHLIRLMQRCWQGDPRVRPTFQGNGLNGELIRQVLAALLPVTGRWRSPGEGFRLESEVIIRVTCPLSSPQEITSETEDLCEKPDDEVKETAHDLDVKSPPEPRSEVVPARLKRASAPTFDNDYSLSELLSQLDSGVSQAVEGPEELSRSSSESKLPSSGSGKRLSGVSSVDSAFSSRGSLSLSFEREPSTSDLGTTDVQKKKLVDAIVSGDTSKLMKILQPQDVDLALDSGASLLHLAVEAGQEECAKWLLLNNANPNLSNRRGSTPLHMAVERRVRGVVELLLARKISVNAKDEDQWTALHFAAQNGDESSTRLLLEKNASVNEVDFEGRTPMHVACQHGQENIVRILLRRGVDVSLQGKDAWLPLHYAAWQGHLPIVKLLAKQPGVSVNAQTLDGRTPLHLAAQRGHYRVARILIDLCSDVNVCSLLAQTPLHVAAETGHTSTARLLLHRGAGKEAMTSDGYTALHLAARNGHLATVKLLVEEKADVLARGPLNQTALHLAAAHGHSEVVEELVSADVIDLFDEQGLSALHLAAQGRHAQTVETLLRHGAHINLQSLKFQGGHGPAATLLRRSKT

340 wild-type kinases [3] = biological target: T3, 340 wild-type kinases (Homo sapiens, UniProt Q12851)
T3 construct: purchased Reaction Biology Europe
T3 sequence (Q12851 1-820): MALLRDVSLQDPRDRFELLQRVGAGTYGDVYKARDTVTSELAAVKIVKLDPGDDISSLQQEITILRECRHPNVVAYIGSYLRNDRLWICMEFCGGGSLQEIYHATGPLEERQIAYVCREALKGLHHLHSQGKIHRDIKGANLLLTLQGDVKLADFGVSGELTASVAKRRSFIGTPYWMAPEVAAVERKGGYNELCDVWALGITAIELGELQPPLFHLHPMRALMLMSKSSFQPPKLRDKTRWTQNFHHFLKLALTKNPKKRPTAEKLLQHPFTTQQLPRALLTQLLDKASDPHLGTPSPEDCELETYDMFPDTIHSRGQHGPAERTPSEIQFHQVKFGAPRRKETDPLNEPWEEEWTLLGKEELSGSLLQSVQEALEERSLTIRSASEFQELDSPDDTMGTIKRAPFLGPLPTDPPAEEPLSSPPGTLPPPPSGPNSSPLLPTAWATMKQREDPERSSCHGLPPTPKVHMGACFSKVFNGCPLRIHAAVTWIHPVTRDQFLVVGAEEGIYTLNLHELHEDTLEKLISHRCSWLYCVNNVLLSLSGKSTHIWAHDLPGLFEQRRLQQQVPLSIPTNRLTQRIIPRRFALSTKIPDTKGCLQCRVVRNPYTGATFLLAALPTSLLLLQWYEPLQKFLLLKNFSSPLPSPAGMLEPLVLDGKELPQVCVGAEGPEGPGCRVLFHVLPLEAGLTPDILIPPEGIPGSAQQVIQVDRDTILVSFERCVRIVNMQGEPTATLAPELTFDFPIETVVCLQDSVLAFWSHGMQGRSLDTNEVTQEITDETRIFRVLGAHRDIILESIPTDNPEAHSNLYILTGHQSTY

340 wild-type kinases [4] = biological target: T4, 340 wild-type kinases (Homo sapiens, UniProt Q13177)
T4 construct: purchased Reaction Biology Europe
T4 sequence (Q13177 whole entry): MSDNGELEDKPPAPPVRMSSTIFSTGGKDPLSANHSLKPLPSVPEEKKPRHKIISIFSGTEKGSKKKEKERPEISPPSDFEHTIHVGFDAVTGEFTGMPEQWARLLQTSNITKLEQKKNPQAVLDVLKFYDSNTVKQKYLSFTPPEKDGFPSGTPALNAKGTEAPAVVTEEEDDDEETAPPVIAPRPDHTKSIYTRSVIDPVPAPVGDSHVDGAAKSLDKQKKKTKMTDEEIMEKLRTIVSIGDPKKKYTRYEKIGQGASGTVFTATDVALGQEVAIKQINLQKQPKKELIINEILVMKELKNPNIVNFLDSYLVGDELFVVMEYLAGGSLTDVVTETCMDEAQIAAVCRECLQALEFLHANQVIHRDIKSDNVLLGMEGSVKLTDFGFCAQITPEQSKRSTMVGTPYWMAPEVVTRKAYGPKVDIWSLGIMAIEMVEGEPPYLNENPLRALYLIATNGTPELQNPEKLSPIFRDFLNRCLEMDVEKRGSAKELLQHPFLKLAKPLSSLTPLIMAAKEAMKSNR

340 wild-type kinases [5] = biological target: T5, 340 wild-type kinases (Homo sapiens, UniProt Q15375)
T5 construct: purchased Reaction Biology Europe
T5 sequence (Q15375 28-998): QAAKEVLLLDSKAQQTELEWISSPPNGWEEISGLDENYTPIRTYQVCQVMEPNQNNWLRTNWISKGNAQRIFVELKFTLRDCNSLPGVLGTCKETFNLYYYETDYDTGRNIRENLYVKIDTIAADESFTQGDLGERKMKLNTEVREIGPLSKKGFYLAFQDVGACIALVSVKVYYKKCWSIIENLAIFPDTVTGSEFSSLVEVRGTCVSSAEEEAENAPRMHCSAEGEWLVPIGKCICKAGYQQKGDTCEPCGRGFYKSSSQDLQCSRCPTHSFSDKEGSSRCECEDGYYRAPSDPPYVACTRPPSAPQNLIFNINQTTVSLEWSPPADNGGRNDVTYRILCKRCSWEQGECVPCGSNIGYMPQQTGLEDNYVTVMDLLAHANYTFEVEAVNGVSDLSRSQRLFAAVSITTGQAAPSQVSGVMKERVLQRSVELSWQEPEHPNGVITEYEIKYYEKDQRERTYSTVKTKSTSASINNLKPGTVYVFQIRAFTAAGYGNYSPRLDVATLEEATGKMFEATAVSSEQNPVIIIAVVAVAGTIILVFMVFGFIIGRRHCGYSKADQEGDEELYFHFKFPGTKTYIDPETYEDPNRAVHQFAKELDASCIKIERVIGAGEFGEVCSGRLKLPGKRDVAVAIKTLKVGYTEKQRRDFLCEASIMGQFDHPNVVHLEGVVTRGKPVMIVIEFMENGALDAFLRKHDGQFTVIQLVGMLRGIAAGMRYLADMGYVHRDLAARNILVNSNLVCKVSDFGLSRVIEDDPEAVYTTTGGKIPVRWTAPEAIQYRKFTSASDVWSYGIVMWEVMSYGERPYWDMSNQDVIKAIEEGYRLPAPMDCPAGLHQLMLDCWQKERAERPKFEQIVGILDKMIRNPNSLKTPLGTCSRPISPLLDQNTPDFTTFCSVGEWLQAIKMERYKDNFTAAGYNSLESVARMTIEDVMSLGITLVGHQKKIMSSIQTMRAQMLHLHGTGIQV

340 wild-type kinases [6] = biological target: T6, 340 wild-type kinases (Homo sapiens, UniProt Q86Y07)
T6 construct: purchased Reaction Biology Europe
T6 sequence (Q86Y07 whole entry): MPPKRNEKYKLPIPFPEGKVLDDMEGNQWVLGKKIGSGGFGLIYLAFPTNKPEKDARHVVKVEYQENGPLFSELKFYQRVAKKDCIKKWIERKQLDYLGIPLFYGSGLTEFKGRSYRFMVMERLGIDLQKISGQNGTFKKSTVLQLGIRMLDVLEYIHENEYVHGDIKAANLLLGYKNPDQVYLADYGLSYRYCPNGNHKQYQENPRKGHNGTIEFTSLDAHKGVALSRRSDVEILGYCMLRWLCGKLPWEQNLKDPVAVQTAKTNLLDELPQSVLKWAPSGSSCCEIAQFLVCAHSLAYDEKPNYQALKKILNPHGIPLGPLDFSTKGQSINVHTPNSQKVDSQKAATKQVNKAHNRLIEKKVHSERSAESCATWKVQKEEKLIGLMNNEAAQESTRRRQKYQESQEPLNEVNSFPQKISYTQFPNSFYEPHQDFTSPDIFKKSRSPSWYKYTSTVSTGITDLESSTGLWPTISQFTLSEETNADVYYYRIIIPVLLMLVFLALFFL

340 wild-type kinases [7] = biological target: T7, 340 wild-type kinases (Homo sapiens, UniProt Q9NR20)
T7 construct: purchased Reaction Biology Europe
T7 sequence (Q9NR20 1-520): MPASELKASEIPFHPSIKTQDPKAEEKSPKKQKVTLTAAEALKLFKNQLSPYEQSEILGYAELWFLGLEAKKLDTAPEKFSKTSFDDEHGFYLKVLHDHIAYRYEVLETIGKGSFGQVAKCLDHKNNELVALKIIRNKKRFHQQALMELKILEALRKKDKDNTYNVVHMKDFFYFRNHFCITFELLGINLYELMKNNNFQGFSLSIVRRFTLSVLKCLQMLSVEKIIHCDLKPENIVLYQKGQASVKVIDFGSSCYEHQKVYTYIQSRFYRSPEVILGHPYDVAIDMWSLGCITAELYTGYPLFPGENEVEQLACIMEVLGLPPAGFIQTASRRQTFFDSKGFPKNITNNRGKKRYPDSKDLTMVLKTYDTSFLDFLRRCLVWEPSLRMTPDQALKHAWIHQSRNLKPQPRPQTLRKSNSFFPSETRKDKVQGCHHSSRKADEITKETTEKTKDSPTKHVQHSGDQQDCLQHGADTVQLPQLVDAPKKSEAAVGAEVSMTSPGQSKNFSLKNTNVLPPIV

[8] = read-out: DYRK4 residual activity

## CNC(=O)c1ccc2c(c1)C(=O)c1ccc(Nc3ccc(F)c(NC(=O)C4CC4)c3)cc1CC2 [Compound 2015]
340 wild-type kinases [1]; 0.2 µM 2015, read-out: SYK residual activity
  remaining activity at 0.2 µM: 95.8%
340 wild-type kinases [1]; 1 µM 2015, read-out: SYK residual activity
  remaining activity at 1 µM: 85.6%
340 wild-type kinases [1]; SYK, 0.2 µM, read-out: residual activity
  remaining activity at 0.2 µM: 95.8%
340 wild-type kinases [1]; SYK, 1 µM, read-out: residual activity
  remaining activity at 1 µM: 85.6%
340 wild-type kinases [2]; 0.2 µM 2015, read-out: RIPK4 residual activity
  remaining activity at 0.2 µM: 104%
340 wild-type kinases [2]; 1 µM 2015, read-out: RIPK4 residual activity
  remaining activity at 1 µM: 98.2%
340 wild-type kinases [2]; RIPK4, 0.2 µM, read-out: residual activity
  remaining activity at 0.2 µM: 104%
340 wild-type kinases [2]; RIPK4, 1 µM, read-out: residual activity
  remaining activity at 1 µM: 98.2%
340 wild-type kinases [3]; 0.2 µM 2015, read-out: MAP4K2 residual activity
  remaining activity at 0.2 µM: 109%
340 wild-type kinases [3]; 1 µM 2015, read-out: MAP4K2 residual activity
  remaining activity at 1 µM: 104%
340 wild-type kinases [3]; MAP4K2, 0.2 µM, read-out: residual activity
  remaining activity at 0.2 µM: 109%
340 wild-type kinases [3]; MAP4K2, 1 µM, read-out: residual activity
  remaining activity at 1 µM: 104%
340 wild-type kinases [4]; 0.2 µM 2015, read-out: PAK2 residual activity
  remaining activity at 0.2 µM: 103%
340 wild-type kinases [4]; 1 µM 2015, read-out: PAK2 residual activity
  remaining activity at 1 µM: 102%
340 wild-type kinases [4]; PAK2, 0.2 µM, read-out: residual activity
  remaining activity at 0.2 µM: 103%
340 wild-type kinases [4]; PAK2, 1 µM, read-out: residual activity
  remaining activity at 1 µM: 102%
340 wild-type kinases [5]; 0.2 µM 2015, read-out: EPHA7 residual activity
  remaining activity at 0.2 µM: 126%
340 wild-type kinases [5]; 1 µM 2015, read-out: EPHA7 residual activity
  remaining activity at 1 µM: 106%
340 wild-type kinases [5]; EPHA7, 0.2 µM, read-out: residual activity
  remaining activity at 0.2 µM: 126%
340 wild-type kinases [5]; EPHA7, 1 µM, read-out: residual activity
  remaining activity at 1 µM: 106%
340 wild-type kinases [6]; 0.2 µM 2015, read-out: VRK2 residual activity
  remaining activity at 0.2 µM: 115%
340 wild-type kinases [6]; 1 µM 2015, read-out: VRK2 residual activity
  remaining activity at 1 µM: 118%
340 wild-type kinases [6]; VRK2, 0.2 µM, read-out: residual activity
  remaining activity at 0.2 µM: 115%
340 wild-type kinases [6]; VRK2, 1 µM, read-out: residual activity
  remaining activity at 1 µM: 118%
340 wild-type kinases [7]; [8]
  remaining activity at 0.2 µM: 108%
  remaining activity at 1 µM: 97.1%
340 wild-type kinases [7]; read-out: residual activity
  remaining activity at 0.2 µM: 108%
  remaining activity at 1 µM: 97.1%
